What all share (type): physicochemical
A short description of series [1]: Crystalline form before and after formulation process (XRPD).
Series [2] can be described thus: Stability of drug substance on storage (XRPD crystalline form, HPLC purity). The note with it: for Chemical purity during storage: storage conditions of the stability test. The procedure: The method parameters for related substances test in the present disclosure are as follows:
Approximately 5 mg of Form CSVI in the present disclosure was stored under 40° C./75% RH and 60° C./75% RH conditions. The purity and crystalline form were tested before and after storage by HPLC and XRPD. The results are listed in Table 3 and the XRPD overlay is substantially as depicted in FIG. 4.
Approximately 5 mg of Form CSVII in the present disclosure was stored under 25° C./60% RH, 40° C./75% RH and 60° C./75% RH conditions. The purity and crystalline form were tested before and after storage by HPLC and XRPD. The results are listed in Table 6 and the XRPD overlay is substantially as depicted in FIG. 10.

The nature of series [3]: Kinetic solubility in FeSSIF, FaSSIF and pH 7.4 PBS (HPLC). The note with it: for solubility at 24 h / solubility at 48 h: thermodynamic from solid. The procedure: The method parameters of kinetic solubility test in the present disclosure are as follows:
Approximately 15-30 mg of Form CSVI in the present disclosure was suspended into 1.8 mL of FeSSIF, 1.8 mL of FaSSIF and 1.8 mL of pH=7.4 PBS. After equilibration for 24 hours and 48 hours, the concentration of upadacitinib in saturated solutions were tested by HPLC and the results are listed in Table 2.
Approximately 15-30 mg of Form CSVII in the present disclosure was suspended into 1.8 mL of FeSSIF, 1.8 mL of FaSSIF and 1.8 mL of pH=7.4 PBS. After equilibration for 24 hours and 48 hours, the concentration of upadacitinib in saturated solutions was tested by HPLC and the results are listed in Table 5.

Series [4] in a line: DVS humidity cycle 0% RH-95% RH-0% RH, crystalline form by XRPD. The note with it: XRPD before and after. The protocol: Dynamic Vapor Sorption (DVS) is measured via an SMS (Surface Measurement Systems Ltd.) intrinsic DVS instrument. Its control software is DVS-Intrinsic control software. Typical parameters for DVS test are as follows: • Temperature: 25° C. • Gas and flow rate: N2, 200 mL/min • RH range: 0% RH to 95% RH
It can be seen that Form CSVI has good stability under accelerated conditions. Form CSVI is stable for at least 1 month under 60° C./75% RH (sealed) condition. It can be seen that Form CSVI has good stability under more stressed condition as well. Approximately 10 mg of Form CSVI in the present disclosure underwent a humidity cycle of 0% RH-95% RH-0% RH with a dynamic vapor sorption (DVS) analyzer.
Approximately 10 mg of Form CSVII in the present disclosure underwent a humidity cycle of 0% RH-95% RH-0% RH with a dynamic vapor sorption (DVS) analyzer.

[5] abbreviates: 40° C./75% RH, Sealed, 6 months.
Where [6] appears, read: 25° C./60% RH, Sealed, 6 months.

In brackets after ≈: the same amount, converted by molar mass.

As a reminder, the solubility is how much of the substance goes into solution per volume. With `CC[C@@H]1CN(C(=O)NCC(F)(F)F)C[C@@H]1c1cnc2cnc3[nH]ccc3n12` [Form CSVI, (3S,4R)-3-ethyl-4-(3H-imidazo[1,2-a]pyrrolo[2,3-e]pyrazin-8-yl)-N-(2,2,2-trifluoroethyl) pyrrolidine-1-carboxamide], the “Physical stability after formulation procedure” value in series [1] is reported as “physically stable”. Moreover, the results for the “Time for which the form is stable (crystalline state unchanged)” value in series [2] (40° C./75% RH (open)), in series [2] (40° C./75% RH (sealed)) and in series [2] (60° C./75% RH (sealed)) were “at least 6 months”, “at least 6 months” and “at least 1 month”, respectively. For the same molecule, the Purity in series [2] (40° C./75% RH, Open, 6 months) was 99.89%; in series [2] (setting [5]) it was 99.92%; in series [2] (60° C./75% RH, Sealed, 1 month), 99.91%; in series [2] (Initial), 99.89%. In addition, the Solid form entry in series [2] (40° C./75% RH, Open, 6 months) is reported as “Form CSVI”; in series [2] (setting [5]), “Form CSVI”; in series [2] (60° C./75% RH, Sealed, 1 month), “Form CSVI”; in series [2] (Initial) it was “Form CSVI”. Also, the “Chemical purity during storage” value in series [2] was “above 99.8%”. In addition, the solubility at 24 h in series [3] (FaSSIF, 37 °C, pH 6.5, fassif, FaSSIF (pH 6.5, 37° C.), 24 hours) is 1870 µg/mL (≈ 4.92 mM); in series [3] (FeSSIF, 37 °C, pH 5, fessif, FeSSIF (pH 5.0, 37° C.), 24 hours), 2200 µg/mL (≈ 5.78 mM); in series [3] (PBS, 25 °C, pH 7.4, aqueous buffer, pH 7.4, 25° C., 24 hours), 880 µg/mL (≈ 2.31 mM). The solubility at 48 h in series [3] (FaSSIF, 37 °C, pH 6.5, fassif, FaSSIF (pH 6.5, 37° C.), 48 hours) turned out to be 1710 µg/mL (≈ 4.5 mM); in series [3] (FeSSIF, 37 °C, pH 5, fessif, FeSSIF (pH 5.0, 37° C.), 48 hours), 2220 µg/mL (≈ 5.84 mM); in series [3] (PBS, 25 °C, pH 7.4, aqueous buffer, pH 7.4, 25° C., 48 hours) it was 850 µg/mL (≈ 2.23 mM). In series [4], the “Form change after DVS test” value is given as “no form change is observed”.
As a reminder, the Solubility is how much of the substance goes into solution per volume. Low readings indicate a poorly soluble substance, high ones a readily soluble substance. As to `CC[C@@H]1CN(C(=O)NCC(F)(F)F)C[C@@H]1c1cnc2cnc3[nH]ccc3n12` [Form CSVII, (3S,4R)-3-ethyl-4-(3H-imidazo[1,2-a]pyrrolo[2,3-e]pyrazin-8-yl)-N-(2,2,2-trifluoroethyl) pyrrolidine-1-carboxamide], the “Physical stability after formulation procedure” value in series [1] was “physically stable”. In addition, the Purity in series [2] (25° C./60% RH, Open, 6 months) was 99.91%; in series [2] (setting [6]) it was 99.92%; in series [2] (setting [5]), 99.92%; in series [2] (60° C./75% RH, Sealed, 1 month), 99.92%; in series [2] (Initial), 99.92%. The Solid form entry in series [2] (25° C./60% RH, Open, 6 months) is listed as “Form CSVII”; in series [2] (setting [6]) it was “Form CSVII”; in series [2] (setting [5]) it was “Form CSVII”; in series [2] (60° C./75% RH, Sealed, 1 month) it was “Form CSVII”; in series [2] (Initial), “Form CSVII”. For the same molecule, the “Chemical purity during storage” value in series [2] is reported as “above 99.9%”. In addition, the Solubility in series [3] (FaSSIF (pH 6.5, 37° C.), 24 hours) came to 2020 µg/mL (≈ 5.31 mM); in series [3] (FaSSIF (pH 6.5, 37° C.), 48 hours), 2170 µg/mL (≈ 5.7 mM); in series [3] (FeSSIF (pH 5.0, 37° C.), 24 hours), 2280 µg/mL (≈ 5.99 mM); in series [3] (FeSSIF (pH 5.0, 37° C.), 48 hours), 2470 µg/mL (≈ 6.49 mM); in series [3] (pH 7.4, 25° C., 24 hours), 920 µg/mL (≈ 2.42 mM); in series [3] (pH 7.4, 25° C., 48 hours), 850 µg/mL (≈ 2.23 mM). Besides, in series [4], the “Form change after DVS test” value is “no form change is observed”.

These data come from patent US11572365B2, “Crystal form of upadacitinib, preparation method therefor, and use thereof” (CRYSTAL PHARMACEUTICAL (SUZHOU) CO., LTD., priority 2021, dated 2023).
